In paper PMC10606765, “Study of the Structural Chemistry of the Inclusion Complexation of 4-Phenylbutyrate and Related Compounds with Cyclodextrins in Solution: Differences in Inclusion Mode with Cavity Size Dependency” (International Journal of Molecular Sciences, 2023):
Read-outs that look alike come from different tables or passages of the source. Marks after values point to notes of the source that are not given here.

Columns and labels:
[1] = Phase solubility study with γCD; assay type: physicochemical; details: 0.1 M phosphate buffer (pH 2.1), 25 °C, mean ± SD (n = 3)
Experimental: (§1) Phase solubility studies were conducted according to the method described by Higuchi and Connors. Briefly, 1 mL of CD solutions (0 to 14 mM, pH 2.1) were added to excess amounts of PB or related compounds placed in screw cap tubes. The resulting samples were shaken for 72 h at 25 °C and 120 rpm (Multi Shaker MMS-3020 in a temperature control chamber FMC-1000; Eyela Co., Ltd., Tokyo, Japan). The resulting suspensions were filtered through 0.2 µm membrane filters (Minisart RC 4, Sartorius Stedim Lab Ltd., Stonehouse, UK) and diluted appropriately. The solubility of PB or related compounds was determined by HPLC, and the data were used to construct phase solubility diagrams. The guest/host ratios for the systems showing BS-type solubility diagrams were estimated as the quotient of the amount of undissolved guest at the start of the plateau region and the CD concentration range corresponding to the plateau region.
(§2) HPLC measurements were performed according to a previous report using a JASCO HPLC system (Jasco Corp., Tokyo, Japan). A YMC-PACK ODS AM 303 column (5 µm, 250 mm × 4.6 mm, YMC Co., Kyoto, Japan) was used as the stationary phase and was maintained at 40 °C. […] For PC and PH, the elution program used was 0–7 min (50–100% B), 7–10 min (100% B), and 10–15 min (100–50% B) at a constant flow rate of 1 mL/min.

[2] = 1H NMR continuous variation plot with αCD; assay type: binding; details: proton Y monitored, 0.1 M sodium borate/D2O, 25 °C, total concentration 1.0 × 10^−2 M
Experimental: ^1H NMR spectra were obtained using a JEOL-A500 spectrometer (Tokyo, Japan) operating at 500 MHz in 5 mm sample tubes at 25 °C using D2O/0.1 M sodium borate (pH meter reading of 9.4) as solvent. The resonance at 4.68 to 4.75 ppm, due to residual solvents (H2O and HOD), was used as an internal reference. Chemical shifts are given as parts per million (ppm), with an accuracy of ±0.001. No external reference was used to avoid possible interactions with the CDs. The ^1H NMR signals of the guests (PB and related compounds) were assigned by 2D ^1H-^1H correlation spectroscopy (COSY), whereas those of the CDs were assigned according to a previous report. The complex stoichiometries were determined by the continuous variation method, where the total concentrations of CD and guest were kept constant at 1.0 × 10^−2 M. In addition, the changes in the chemical shift of CDs and the guest protons in their equimolar systems (5.0 × 10^−3 M) were monitored. […] The stability constant values of the complexes formed by PH were determined from the curves. Two-dimensional ROESY NMR experiments were performed for the CD-PH systems in the phase-sensitive mode using the same spectrometer. Each spectrum consisted of a matrix of F2 by F1 covering a sweep width of 5000 Hz with 36 scans. The spin-lock mixing time was 800 ms, with a relaxation delay of 4 s, and a 90° pulse width of 11.8 µs. The concentration of guest and host were 2.5 × 10^−2 M/1.0 × 10^−1 M (PH/αCD), 1.5 × 10^−2 M/2.5 × 10^−2 M (PH/βCD), and 2.5 × 10^−2 M/2.5 × 10^−2 M (PH/γCD). The stability constants (K1:1) of the PH–CD complexes were estimated by analyzing the first-order dependences of the chemical shift change of PH protons on CD concentration using Equation (2):(2) δobs=δ0+δ1K1:1CDf/1+K1:1CDf where δ0 and δobs are chemical shifts of PH protons without or with CD, respectively, and δ1 is the chemical shift of PH protons in the 1:1 complex.

[3] = Phase solubility study with βCD; assay type: physicochemical; details: 0.1 M phosphate buffer (pH 2.1), 25 °C, mean ± SD (n = 3)
Experimental: as §1, §2

[4] = Phase solubility study with αCD; assay type: physicochemical; details: 0.1 M phosphate buffer (pH 2.1), 25 °C; for Apparent stability constant K αCD / Guest/Host Ratio αCD: phase solubility, mean ± SD (n = 3)
Experimental: as §1, §2

[5] = 1H NMR molar ratio titration with βCD (stability constant); assay type: binding
Experimental: (§3) ^1H NMR spectra were obtained using a JEOL-A500 spectrometer (Tokyo, Japan) operating at 500 MHz in 5 mm sample tubes at 25 °C using D2O/0.1 M sodium borate (pH meter reading of 9.4) as solvent. The resonance at 4.68 to 4.75 ppm, due to residual solvents (H2O and HOD), was used as an internal reference. Chemical shifts are given as parts per million (ppm), with an accuracy of ±0.001. No external reference was used to avoid possible interactions with the CDs. The ^1H NMR signals of the guests (PB and related compounds) were assigned by 2D ^1H-^1H correlation spectroscopy (COSY), whereas those of the CDs were assigned according to a previous report. The complex stoichiometries were determined by the continuous variation method, where the total concentrations of CD and guest were kept constant at 1.0 × 10^−2 M. In addition, the changes in the chemical shift of CDs and the guest protons in their equimolar systems (5.0 × 10^−3 M) were monitored. […] The stability constant values of the complexes formed by PH were determined from the curves. […]
(§4) The equation was analyzed by the iteration method since the concentration of free CD ([CD]f) is unknown unless K1:1 had been determined beforehand. […] Therefore, by setting [CD]f = [CD]t as a first approximation, Equation (2) was analyzed by a nonlinear least-squares method, and, in turn, [CD]f values were calculated using the obtained apparent K1:1 value. […]

[6] = 1H NMR molar ratio titration with αCD (stability constant); assay type: binding
Experimental: as §3, §4

[7] = 1H NMR molar ratio titration with γCD (stability constant); assay type: binding
Experimental: as §3, §4

[8] = design: method as in PMID 36548517; details: 0.1 M phosphate buffer (pH 2.1), 25 °C, cited from earlier work
[9] = design: method as in PMID 36548517; details: proton Y monitored, 0.1 M sodium borate/D2O, 25 °C, total concentration 1.0 × 10^−2 M; cited from earlier work
[10] = design: method as in PMID 36548517; details: phase solubility, 0.1 M phosphate buffer (pH 2.1), 25 °C, mean ± SD (n = 3); cited from earlier work
[11] = design: method as in PMID 36548517; details: phase solubility, 0.1 M phosphate buffer (pH 2.1), 25 °C, mean ± SD (n = 3); cited from earlier work; remark: listed apart in the source
[12] = NMR value (pH 9.4) vs phase solubility value (pH 2.1)

Structure (SMILES)	Apparent stability constant K γCD [1] [M⁻¹]	Guest/Host Ratio γCD [1]	Maximum of continuous variation plot, guest/(guest + host) mole fraction, αCD [2]	Apparent stability constant K βCD [3] [M⁻¹]	Guest/Host Ratio βCD [3]	Phase solubility diagram type with αCD [4]	Apparent stability constant K αCD [4] [M⁻¹]	Guest/Host Ratio αCD [4]	also measured
O=C(O)CCCCc1ccccc1 [PV, 5-phenylvaleric acid]	223 ± 7	2.21 ± 0.03	0.35	838 ± 52	0.99 ± 0.05	AL-type	639 ± 20		
O=C(O)CCCCCCc1ccccc1 [PH, 7-phenylheptanoic acid]	1213 ± 18	2.20 ± 0.01	0.35	7458 ± 52	1.02 ± 0.01	BS-type	2500 ± 50	0.44 ± 0.01	Reduction of stability constant of βCD complex compared to value at pH 2.1 [5, 12]: 3 fold; Stability constant K1:1 of βCD complex from 1H NMR chemical shift change ([5]; determined from protons A and X, 0.1 M sodium borate/D2O (pH 9.4), 25 °C): 2513 ± 469 M⁻¹; Reduction of stability constant of αCD complex compared to value at pH 2.1 [6, 12]: 20 fold; Stability constant K1:1 of αCD complex from 1H NMR chemical shift change ([6]; determined from protons A and Y, 0.1 M sodium borate/D2O (pH 9.4), 25 °C): 123 ± 2 M⁻¹; Reduction of stability constant of γCD complex compared to value at pH 2.1 [7, 12]: 3 fold; Stability constant K1:1 of γCD complex from 1H NMR chemical shift change ([7]; determined from protons C and X, 0.1 M sodium borate/D2O (pH 9.4), 25 °C): 370 ± 6 M⁻¹
O=C(O)CCCc1ccccc1 [PB, 4-phenylbutyrate]									Phase solubility diagram type with αCD [8]: AL-type; Apparent stability constant K αCD ([8]; phase solubility, mean ± SD (n = 3)): 481 ± 26 ^a M^−1; Maximum of continuous variation plot, guest/(guest + host) mole fraction, αCD [9]: 0.5; Apparent stability constant K βCD [10]: 178 ± 23 ^a M^−1; Guest/Host Ratio βCD [10]: 1.02 ± 0.05 ^b; Apparent stability constant K γCD [11]: 119 ± 9 ^a M^−1; Guest/Host Ratio γCD [11]: 2.14 ± 0.08 ^b
O=C(O)CCCCCc1ccccc1 [PC, 6-phenylcaproic acid]	499 ± 59	2.30 ± 0.03	0.35	2283 ± 134	1.08 ± 0.01	BS-type	1185 ± 35	0.55 ± 0.03	
O=C(O)CCc1ccccc1 [PP, 3-phenylpropionic acid]	34 ± 1			74 ± 3		AL-type	226 ± 5		
